Reference: PMC9011347, “Small-Molecule Inhibitors Targeting Lipolysis in Human Adipocytes” (Journal of the American Chemical Society, 2022)

Key:
[1] = biological target: T1, Variant c4 (aa 1–69 of human ATGL) (Homo sapiens, UniProt Q96AD5, F97C/G146T/H109R/I93T/N133S/S106C/S111N/S158T/S96G/V101T); assay: TAG hydrolase assay, chimeric ATGL variants; type: biochemical, human and mouse; details: variant c4, NG-497 (10 μM) or Atglistatin (10 μM)
T1 construct: host or cells: Expi293 cells, cell lysate
Procedure: (§1) Figure 5 Analysis of chimeric proteins comprising human and mouse ATGL. (a) Schematic view of the minimal active domain of wild-type and chimeric ATGL variants (c1–c9). Nonidentical aa are indicated in blue and red for mouse and human ATGL, respectively. ATGL variants were expressed in Expi293 cells and TAG hydrolase activity was determined in cell lysates in the presence or absence of NG-497 (10 μM) and Atglistatin (10 μM), respectively. Inhibition of ATGL variants by respective inhibitors (tick mark) and lack of inhibition (cross) is indicated at the right edge. The expression of all ATGL variants was confirmed by Western blotting analysis (Figure S6). (b) Dose-dependent inhibition of human ATGL (aa 1–288) and c1 (human aa 1–158 and mouse aa 159–288) by NG-497. (c) Dose-dependent inhibition of mouse ATGL (aa 1–288) and c2 (mouse aa 1–158 and human aa 159–288) by Ai. IC50 values are shown in the insets. Data are presented as relative inhibition of respective DMSO controls and are indicated as mean ± SD. (d) 3D homology model of the minimal active domain of mouse ATGL (M1–L254) depicted as a cartoon. Residues 1–178 are in blue, and residues 179–254 are in gray. S47 and D166 comprising the active site are represented as green sticks. T101, C106, R109, N111, and S133 are colored in orange, A60, N68, I69, T93, C97, and T146 are colored in magenta. TEXT PRINTED IN THE PICTURE: (b) NG-497: IC50 [μM] (human): 1.3±0.1; IC50 [μM] (c1): 1.3±0.1 | (b) Ai: IC50 [μM] (human): n.det.; IC50 [μM] (c1): n.det. | (c) NG-497: IC50 [μM] (mouse): n.det.; IC50 [μM] (c2): n.det. | (c) Ai: IC50 [μM] (mouse): 2.5±0.3; IC50 [μM] (c2): 2.4±0.1 […]
(§2) We next generated variants by further stepwise humanization of c2. Variant c3 containing aa 1–23 of human ATGL was inhibited by Ai but not NG-497 (Figure 5a). […] Finally, variants of mouse ATGL containing aa 1–146 (c7) and 60–146 (c8) of human ATGL were inhibited by NG-497 but not Ai (Figure 5a).
(§3) Experimental details, materials, and methods
(§4) Expression of recombinant ATGL constructs and preparation of cell lysates. Expi293 cells were cultivated in Expi293 Expression Medium (GIBCO, Thermo Fisher Scientific, Waltham, USA) at standard conditions (37°C, 5% CO2, 95% humidified atmosphere, 125 rpm). DNA constructs containing ATGL from different species and chimeric ATGL variants in pcDNA3.1(+)myc-His C Vector were obtained from BioCat GmbH (Heidelberg, Germany). Cells were transfected with ExpiFectamine293 Transfection Kit (GIBCO) in Opti-Mem reduced serum medium (GIBCO) according to the manufacturer’s instructions. After 48 h, cells were harvested by centrifugation and washed three times with PBS. Cells were disrupted in buffer A (0.25 M sucrose, 1 mM EDTA, 1 mM dithiothreitol, 20µg/ml leupeptin, 2 µg/ml antipain, 1 µg/ml pepstatin, pH 7.0) by sonication (Virsonic 475, Virtis, Gardiner, USA). Nuclei and debris were removed by centrifugation at 1,000 g and 4°C for 10 min. Protein concentrations were determined using Bio-Rad protein assay (Bio-Rad 785, Bio-Rad Laboratories, Munich, Germany) using BSA as standard.
(§5) Expression and purification of mouse CGI-58. CGI-58 was expressed and purified as described 1. In brief, the coding sequence of mouse Cgi-58 was cloned into pHis-Sumo and co-transformed with the plasmid pTf16 expressing the chaperone Tig into E. coli BL21(DE3). Cells were cultured overnight at 37°C and 180 rpm in the presence of 40 µg/ml kanamycin and 34 µg/ml chloramphenicol. Thereafter, cells were transferred into fresh LB medium, grown until OD600 of 0.6, and expression was induced by the addition of 0.5 mM IPTG. After overnight incubation at 30°C, cells were harvested at 4,500 x g and 4°C for 20 min, washed in 1x PBS, and resuspended in lysis buffer (20 mM Tris/HCl pH 7.8, 300 mM NaCl, 30 mM imidazole, 0.1% IGEPAL CA-630, 3.5 mM β-mercaptoethanol, 20 µg/ml leupeptin, 2 µg/ml antipain and 1 µg/ml pepstatin). Cells were incubated with 1 […]

[2] = biological target: T2, c6 (aa 1–133 of human ATGL) (Homo sapiens, UniProt Q96AD5, G146T/S158T); assay: TAG hydrolase assay, chimeric ATGL variants; type: biochemical, human and mouse; details: variant c6, NG-497 (10 μM) or Atglistatin (10 μM)
T2 construct: host or cells: Expi293 cells, cell lysate
Procedure: as §1, §2, §3, §4, §5

[3] = biological target: T3, mouse ATGL I69F (Mus musculus, UniProt Q8BJ56, I69F); assay: TAG hydrolase assay, humanized mouse ATGL variants; type: biochemical; details: variant I69F, NG-497 (10 μM) or Atglistatin (10 μM)
T3 construct: host or cells: Expi293 cells, cell lysate
Procedure: as §1
(§6) The region between aa 60 and 146 of human and mouse ATGL comprises 12 nonidentical aa. We generated 3D homology models for the minimal active domain of mouse ATGL to obtain more detailed insight into the topology of the relevant region (Figure 5d). Based on this model, aa T101, C106, R109, N111, and S133 locate at peripheral (loop) regions (indicated in orange, Figure 5d). […] For all other nonidentical aa (indicated in magenta, Figure 5d), we generated variants with single aa substitutions. The humanized variants A60V, N68K, T93I, and C97F were inactivated by Ai but not NG-497 (Figure 5a).
as §3, §4
as §5, with “min,” for “min, washed in 1x PBS, and resuspended in lysis buffer (20 mM Tris/HCl pH 7.8, 300 mM NaCl, 30 mM imidazole, 0.1% IGEPAL CA-630, 3.5 mM β-mercaptoethanol, 20 µg/ml leupeptin, 2 µg/ml antipain and 1 µg/ml pepstatin). Cells were incubated with 1”

[4] = biological target: T4, mouse ATGL T146G (Mus musculus, UniProt Q8BJ56, T146G); assay: TAG hydrolase assay, humanized mouse ATGL variants; type: biochemical; details: variant T146G, NG-497 (10 μM) or Atglistatin (10 μM)
T4 construct: host or cells: Expi293 cells, cell lysate
Procedure: as §1, §6, §3, §4
as §5, with “min,” for “min, washed in 1x PBS, and resuspended in lysis buffer (20 mM Tris/HCl pH 7.8, 300 mM NaCl, 30 mM imidazole, 0.1% IGEPAL CA-630, 3.5 mM β-mercaptoethanol, 20 µg/ml leupeptin, 2 µg/ml antipain and 1 µg/ml pepstatin). Cells were incubated with 1”

Measured: inhibition of TAG hydrolase activity

T4 sequence (Q8BJ56 whole entry T146G): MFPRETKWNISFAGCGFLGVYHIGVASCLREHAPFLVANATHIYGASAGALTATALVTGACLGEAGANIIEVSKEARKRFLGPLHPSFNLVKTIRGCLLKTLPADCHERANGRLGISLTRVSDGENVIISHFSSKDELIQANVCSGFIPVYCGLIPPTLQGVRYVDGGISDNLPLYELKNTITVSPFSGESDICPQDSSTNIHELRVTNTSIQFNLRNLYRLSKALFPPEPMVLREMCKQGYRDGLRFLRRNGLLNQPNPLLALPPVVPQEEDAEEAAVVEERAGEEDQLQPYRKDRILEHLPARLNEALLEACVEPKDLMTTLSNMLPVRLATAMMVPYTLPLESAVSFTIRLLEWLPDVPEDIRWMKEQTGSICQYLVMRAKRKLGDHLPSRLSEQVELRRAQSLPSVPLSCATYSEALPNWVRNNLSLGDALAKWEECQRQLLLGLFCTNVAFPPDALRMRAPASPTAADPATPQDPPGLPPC
T3 sequence (Q8BJ56 whole entry I69F): as the sequence (Q8BJ56 whole entry T146G) above, with I69F, G146T counted along it
T2 sequence (Q96AD5 1-288 G146T/S158T): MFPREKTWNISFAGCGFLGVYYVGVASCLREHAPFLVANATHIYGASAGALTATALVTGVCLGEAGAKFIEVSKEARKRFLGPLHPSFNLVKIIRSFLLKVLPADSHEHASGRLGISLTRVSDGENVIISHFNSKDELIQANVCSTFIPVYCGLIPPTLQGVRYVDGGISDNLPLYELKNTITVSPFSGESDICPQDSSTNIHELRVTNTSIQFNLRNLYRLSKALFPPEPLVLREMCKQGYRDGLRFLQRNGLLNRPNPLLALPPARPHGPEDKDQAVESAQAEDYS
T1 sequence (Q96AD5 1-288 I93T/S96G/F97C/V101T/S106C/H109R/S111N/N133S/G146T/S158T): as the sequence (Q96AD5 1-288 G146T/S158T) above, with I93T, S96G, F97C, V101T, S106C, H109R, S111N, N133S counted along it

CN(C)C(=O)Nc1cccc(-c2ccc(N(C)C)cc2)c1 [Atglistatin, reference compound]
neither inhibited: all assays above

CCOc1ccc(-c2cc(OC)cc(C(=O)OC(C)C)n2)cc1 [NG-497]
neither inhibited: all assays above
